What is called NOAEL is the highest tested level that showed no adverse finding.

The structures appear in SMILES notation. Values after ≈ are worked out from the molar mass of the structure shown. Where two headings read alike, the source gives them in different places. Some results are limits rather than exact numbers.

In series [1] the test system is Ent. cloacae MA2646. Nature of the series: in vitro antibacterial activity, microtitration dilution (MIC), Ent. cloacae MA2646. The class given is cell-based. Particulars: Enterobacter cloacae, read-out: minimum inhibiting concentration (MIC). An outline of the steps: (§1)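 Microtitration dilution method used to obtain minimum inhibitory concentrations, expressed as μg/mL.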

Series [2] relates to Esch. coli Vogel. Nature of the series: in vitro antibacterial activity, microtitration dilution (MIC), Esch. coli Vogel. The class given is cell-based. The note with it: Escherichia coli, read-out: minimum inhibiting concentration (MIC). The essentials: as §1
In series [3] the test system is Klebs. pneumoniae MGH-2. Nature of the series: in vitro antibacterial activity, microtitration dilution (MIC), Klebs. pneumoniae MGH-2. The format is cell-based. Particulars: Klebsiella pneumoniae, MGH2, read-out: minimum inhibiting concentration (MIC). The essentials: as §1
In series [4] the test system is Prot. rettgeri M 1771. Nature of the series: in vitro antibacterial activity, microtitration dilution (MIC), Prot. rettgeri M 1771. The class given is cell-based. Particulars: Providencia rettgeri, M1771, read-out: minimum inhibiting concentration (MIC). An outline of the steps: as §1
Series [5] concerns Pseud. aeruginosa UI-18. Nature of the series: in vitro antibacterial activity, microtitration dilution (MIC), Pseud. aeruginosa UI-18. The class given is cell-based. The note with it: Pseudomonas aeruginosa, UI18, read-out: minimum inhibiting concentration (MIC). The essentials: as §1
Series [6] concerns Staph. aureus H 228. As to the kind of experiment: in vitro antibacterial activity, microtitration dilution (MIC), Staph. aureus H 228. The class given is cell-based. Particulars: Staphylococcus aureus, H228, read-out: minimum inhibiting concentration (MIC). An outline of the steps:
as §1

The subject of series [7] is Staph. aureus UC-76. As to the kind of experiment: in vitro antibacterial activity, microtitration dilution (MIC), Staph. aureus UC-76. The class given is cell-based. Particulars: Staphylococcus aureus, UC76, read-out: minimum inhibiting concentration (MIC). The essentials: as §1
For series [8], the system named is Strep. faecalis MGH-2. As to the kind of experiment: in vitro antibacterial activity, microtitration dilution (MIC), Strep. faecalis MGH-2. The class given is cell-based. The note with it: Enterococcus faecalis, MGH2, read-out: minimum inhibiting concentration (MIC). The essentials:
as §1

Series [9] has as its system Strep. pheumoniae SV-1. As to the kind of experiment: in vitro antibacterial activity, microtitration dilution (MIC), Strep. pneumoniae SV-1. The format is cell-based. The note with it: Streptococcus pneumoniae, SV1, read-out: minimum inhibiting concentration (MIC). An outline of the steps:
as §1

In series [10] the test system is Strep. pyogenes C-203. As to the kind of experiment: in vitro antibacterial activity, microtitration dilution (MIC), Strep. pyogenes C-203. The note with it: Streptococcus pyogenes, C203, read-out: minimum inhibiting concentration (MIC). The format is cell-based. An outline of the steps: as §1
For series [11], the system named is Esch. coli Vogel. As to the kind of experiment: median protective dose in mice given lethal systemic infections, Esch. coli Vogel. The class given is in vivo. Particulars: Escherichia coli, single dose at time of challenge, read-out: median protective dose (PD50). An outline of the steps: (§2)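 Mice given lethal systemic infections received single compound doses at time of challenge; PD50 (mg/kg) is the median protective dose.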

Series [12] relates to Pseud. aeruginosa UI-18. Nature of the series: median protective dose in mice given lethal systemic infections, Pseud. aeruginosa UI-18. The format is in vivo. The note with it: Pseudomonas aeruginosa, single dose at time of challenge, read-out: median protective dose (PD50). On the procedure:
(§3) The in vivo activity is obtained when the compounds are tested according to the procedure of Miller, et al (Proc. Soc. Exp. Biol. Med. 57, 261, 1944). The median protective dose (PD50) was determined in mice given lethal systemic infections. Single doses of compound were given at time of challenge.
(§4) By use of the above methods, the following minimum inhibiting concentration values (MICs in μg/mL), PD50 's in mg/kg, no effect phototoxicity dose in mg/kg and the cytotoxicity IC50 in μg/mL were obtained for representative enantiomers of the invention and compounds of the prior art as shown in the table.
(§5) The in vivo data as PD50 s are reported below the line of MICs for the same compound.

Series [13] relates to Strep. pheumoniae SV-1. As to the kind of experiment: median protective dose in mice given lethal systemic infections, Strep. pneumoniae SV-1. The class given is in vivo. Particulars: Streptococcus pneumoniae, single dose at time of challenge, read-out: median protective dose (PD50). How it is done:
as §3, §4, §5

The test system of series [14] is Strep. pyogenes C-203. Nature of the series: median protective dose in mice given lethal systemic infections, Strep. pyogenes C-203. The note with it: Streptococcus pyogenes, single dose at time of challenge, read-out: median protective dose (PD50). The format is in vivo. The essentials: as §2
A short description of series [15]: in vivo. Details: species or system mice. Particulars: mouse, po. How it is done: The phototoxicity data is obtained using depilated mice. The compound was administered orally each day for four successive days, followed each day by 3 hours of UVA radiation. The mice were examined for any positive signs (redness, erythema) relative to control animals. The no effect dose and the 50% effect dose were determined. By use of the above methods, the following minimum inhibiting concentration values (MICs in μg/mL), PD50 's in mg/kg, no effect phototoxicity dose in mg/kg and the cytotoxicity IC50 in μg/mL were obtained for representative enantiomers of the invention and compounds of the prior art as shown in the table.

Series [16] can be described thus: cytotoxicity, hamster V-79 cells, colony reduction. The format is cell-based. The note with it: 3 hours treatment, colonies counted after 5 days, read-out: Cytotox (cytotoxicity IC50). An outline of the steps:
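Cells were grown overnight, exposed to drug for 3 h, washed and replated. Colonies were counted after 5 days, and IC50 was taken as the concentration reducing colonies by 50% versus control.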

Regarding `C[C@H]([C@@H]1CCN(c2nc3c(cc2F)c(=O)c(C(=O)O)cn3C2CC2)C1)N(C)C` [Example 72, 3R,1R-1-cyclopropyl-7-[3-[1-(dimethylamino)ethyl]-1-pyrrolidinyl]-6-fluoro-1,4,-dihydro-4-oxo-1,8-naphthyridine-3-carboxylic acid], the MIC in series [1] stood at 0.2 µg/mL (≈ 0.515 µM); in [2], 0.1 µg/mL (≈ 0.257 µM); in [3], 0.2 µg/mL (≈ 0.515 µM); in series [4], 0.8 µg/mL (≈ 2.06 µM); in [5], 1.6 µg/mL (≈ 4.12 µM); in series [6], 0.025 µg/mL (≈ 0.0644 µM). Moreover, the MIC in [7] was 0.025 µg/mL (≈ 0.0644 µM); in series [8] it was 0.1 µg/mL (≈ 0.257 µM); in series [9], 0.025 µg/mL (≈ 0.0644 µM); in series [10] it was 0.05 µg/mL (≈ 0.129 µM). Besides, the ED50 amounted to 1 mg/kg in series [11] (PO); 1 mg/kg in series [11] (SC); 17 mg/kg in [12] (UI18, PO); 11 mg/kg in series [12] (UI18, SC); 2 mg/kg in [13] (SV1, PO); 2 mg/kg in [13] (SV1, SC). The ED50 in series [14] (C203, PO) amounted to 2 mg/kg; in series [14] (C203, SC), 2 mg/kg. For the same molecule, the NOAEL at 96 h in [15] is under 30 mg/kg. Besides, the CC50 at 3 h in series [16] was found to be 120 µg/mL (≈ 309 µM).
Turning to `C[C@@H](N)[C@H]1CCN(c2nc3c(cc2F)c(=O)c(C(=O)O)cn3C2CC2)C1` [Example 5, 3S,1R-1-cyclopropyl-6-fluoro-7-[3-(1-aminoethyl)-1-pyrrolidinyl]-1,4-dihydro-4-oxo-1,8-naphthyridine-3-carboxylic acid], the MIC in [1] came out at 0.05 µg/mL (≈ 0.139 µM); in [2], 0.05 µg/mL (≈ 0.139 µM); in series [3], 0.1 µg/mL (≈ 0.277 µM); in series [4] it was 0.2 µg/mL (≈ 0.555 µM); in series [5] it was 0.8 µg/mL (≈ 2.22 µM); in series [6], 0.2 µg/mL (≈ 0.555 µM). Also, the MIC was determined as 0.025 µg/mL (≈ 0.0694 µM) in series [7], 0.1 µg/mL (≈ 0.277 µM) in series [8], 0.05 µg/mL (≈ 0.139 µM) in series [9] and 0.05 µg/mL (≈ 0.139 µM) in series [10]. Further, the ED50 in series [11] (PO) turned out to be 4 mg/kg; in [11] (SC) it was 1 mg/kg; in series [12] (UI18, PO) it was 23 mg/kg; in [12] (UI18, SC) it was 16 mg/kg; in series [13] (SV1, PO) it was 15 mg/kg; in series [13] (SV1, SC), 7 mg/kg. This molecule registered an NOAEL at 96 h in series [15] of over 100 mg/kg. Moreover, the CC50 at 3 h in series [16] is 84 µg/mL (≈ 233 µM).
As for `C[C@H](N)[C@@H]1CCN(c2nc3c(cc2F)c(=O)c(C(=O)O)cn3C2CC2)C1` [Example 7, 3R,1S-1-cyclopropyl-6-fluoro-7-[3-(1-aminoethyl)-1-pyrrolidinyl]-1,4-dihydro-4-oxo-1,8-naphthyridine-3-carboxylic acid], the MIC turned out to be 0.025 µg/mL (≈ 0.0694 µM) in [1]; 0.025 µg/mL (≈ 0.0694 µM) in series [2]; 0.05 µg/mL (≈ 0.139 µM) in [3]; 0.1 µg/mL (≈ 0.277 µM) in series [4]; 0.4 µg/mL (≈ 1.11 µM) in series [5]; 0.025 µg/mL (≈ 0.0694 µM) in series [6]. For the same molecule, the MIC in series [8] came to 0.025 µg/mL (≈ 0.0694 µM); in series [9] it was 0.006 µg/mL (≈ 0.0166 µM); in [10], 0.013 µg/mL (≈ 0.0361 µM). Moreover, the ED50 in series [11] (PO) was determined as 2 mg/kg; in [11] (SC), 0.4 mg/kg; in series [12] (UI18, PO) it was 15 mg/kg; in series [12] (UI18, SC) it was 4 mg/kg; in series [13] (SV1, PO), 3 mg/kg; in [13] (SV1, SC) it was 1 mg/kg. Also, the ED50 in [14] (C203, PO) worked out at 3 mg/kg; in series [14] (C203, SC) it was 1 mg/kg. The NOAEL at 96 h in [15] worked out at 30 mg/kg. In addition, the CC50 at 3 h in series [16] is 33 µg/mL (≈ 91.6 µM).

The record behind these values is patent US5563155A, “Individual stereosiomers of 7-[3-(aminoalkyl)-1-pyrrolidinyl]-quinolones and naphthyridones as antibacterial agents” (Warner-Lambert Company, priority 1995, dated 1996).
